Patent publication US20100239670A1, “Topical Composition Method for Treating Urinary Stress Incontinence” (Plethora Solutions Ltd., priority 2000, published 2010)

Columns and labels:
[1] = system: female patients with documented history of stress incontinence; assay: Urethral pressure after topical gel, double-blind randomised 2-way cross-over study; format: in vivo; conditions: single topical dose, gel 0.5 ml, 20% w/w, applied to peri-urethral area; up to 5 hours post dosing; in contrast to placebo; two typical patients (FIGS. 1 and 2)
Experimental: (§1) The invention has been evaluated in a double-blind, randomised, 2-way cross-over study in female patients with documented history of stress incontinence. Each patient was exposed to both placebo and active drug over the course of the study.
(§2) Each patient received either a single dose of topical phenylephrine gel (20% w/w in a volume of 0.5 ml) or placebo according to the randomisation schedule. The gel was applied to the peri-urethral area; in, onto or around the area of the vagina and/or vaginal mucosa, in close proximity to the urethra. For up to 5 hours post dosing, urethral pressure was measured using the standard Lectromed/Galetec MPR/2 ambulatory measurement system. Supine and standing blood pressure and pulse rate was likewise measured using standard methodology via a Dinamap semi-automatic sphygmomanometer.

[2] = system: female patients with documented history of stress incontinence; assay: Supine and standing blood pressure and pulse rate in the same cross-over study; format: in vivo; conditions: single topical dose, gel 0.5 ml, 20% w/w; up to 5 hours post dosing
Experimental: as §1, §2

[3] = literature, cited from earlier work

## CNC[C@H](O)c1cccc(O)c1 [phenylephrine]
[1]
  intra-urethral pressure: marked and sustained increases
[2]
  diastolic or systolic blood pressure: no clinically significant changes
  pulse rate: no clinically significant changes
[3]; not topical
  blood pressure: substantial elevations
[3]
  duration of action: short
[3]; oral
  oral bioavailability: low
